According to PubChem BioAssay AID2060494 (Molecular Pharmacology Branch, DTP, NCI, 2025):

Tested on: 435261-313-R-J1-PDC complex spheroid viability
Test: Anticancer human tumor 435261-313-R-J1-PDC patient-derived colon adenocarcinoma cell line growth inhibition [GQUAD]
Settings: for IC50: curve of first compound; for viability, T/C: stronger effect = lower value
Procedure, shortened: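 Multi-cell-type spheroids of tumor cells with HUVEC and mesenchymal stem cells, treated with drug combinations. Concentrations descend in half-log steps from near clinical Cmax, or from 10 microM where Cmax is unknown; viability read-out.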

[1] = second compound 0.0316 µM, first compound 0.0316 µM
[2] = second compound 0.0316 µM, first compound 0.1 µM
[3] = second compound 0.0316 µM, first compound 0.316 µM
[4] = second compound 0.0316 µM, first compound 1 µM
[5] = second compound 0.0316 µM, first compound 3.16 µM
[6] = second compound 0.0316 µM, first compound 10 µM
[7] = second compound 0.1 µM, first compound 0.0316 µM
[8] = second compound 0.1 µM, first compound 0.1 µM
[9] = second compound 0.1 µM, first compound 0.316 µM
[10] = second compound 0.1 µM, first compound 1 µM
[11] = second compound 0.1 µM, first compound 3.16 µM
[12] = second compound 0.1 µM, first compound 10 µM
[13] = second compound 0.316 µM, first compound 0.0316 µM
[14] = second compound 0.316 µM, first compound 0.1 µM
[15] = second compound 0.316 µM, first compound 0.316 µM
[16] = second compound 0.316 µM, first compound 1 µM
[17] = second compound 0.316 µM, first compound 3.16 µM
[18] = second compound 0.316 µM, first compound 10 µM
[19] = second compound 1 µM, first compound 0.0316 µM
[20] = second compound 1 µM, first compound 0.1 µM
[21] = second compound 1 µM, first compound 0.316 µM
[22] = second compound 1 µM, first compound 1 µM
[23] = second compound 1 µM, first compound 3.16 µM
[24] = second compound 1 µM, first compound 10 µM
[25] = second compound 3.16 µM, first compound 0.0316 µM
[26] = second compound 3.16 µM, first compound 0.1 µM
[27] = second compound 3.16 µM, first compound 0.316 µM
[28] = second compound 3.16 µM, first compound 1 µM
[29] = second compound 3.16 µM, first compound 3.16 µM
[30] = second compound 3.16 µM, first compound 10 µM
[31] = second compound 10 µM, first compound 0.0316 µM
[32] = second compound 10 µM, first compound 0.1 µM
[33] = second compound 10 µM, first compound 0.316 µM
[34] = second compound 10 µM, first compound 1 µM
[35] = second compound 10 µM, first compound 3.16 µM
[36] = second compound 10 µM, first compound 10 µM
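Further: spheroids exposed to the agents for seven days before readout.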
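Wherever viability, T/C is given: percent of vehicle control viability with DMSO wells as 100%.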

CC1COCCN1c1cc(C2(O)CC3CCC(C2)O3)c2cnn(-c3ccn[nH]3)c2n1 (stereo not drawn) + CN(C)c1ccc(Nc2c3ccc(NC(=O)CCN4CCCC4)cc3nc3cc(NC(=O)CCN4CCCC4)ccc23)cc1
IC50 (second compound 0.0316 µM): 0.193 µM | IC50 (second compound 0.1 µM): 0.316 µM | IC50 (second compound 0.316 µM): 0.225 µM | IC50 (second compound 1 µM): 0.257 µM | IC50 (second compound 3.16 µM): < 0.0316 µM | IC50 (second compound 10 µM): < 0.0316 µM | viability, T/C [1]: 63% | viability, T/C [2]: 58.1% | viability, T/C [3]: 45.1% | viability, T/C [4]: 27.4% | viability, T/C [5]: 23.2% | viability, T/C [6]: 12% | viability, T/C [7]: 71.3% | viability, T/C [8]: 82.8% | viability, T/C [9]: 47.3% | viability, T/C [10]: 26.8% | viability, T/C [11]: 21.1% | viability, T/C [12]: 10.8% | viability, T/C [13]: 75.1% | viability, T/C [14]: 61.7% | viability, T/C [15]: 45.7% | viability, T/C [16]: 28.9% | viability, T/C [17]: 25% | viability, T/C [18]: 11.6% | viability, T/C [19]: 82.7% | viability, T/C [20]: 64.5% | viability, T/C [21]: 48% | viability, T/C [22]: 28.3% | viability, T/C [23]: 21.1% | viability, T/C [24]: 7.4% | viability, T/C [25]: 48.6% | viability, T/C [26]: 44.3% | viability, T/C [27]: 31.9% | viability, T/C [28]: 13.3% | viability, T/C [29]: 9.48% | viability, T/C [30]: 3.11% | viability, T/C [31]: 26.9% | viability, T/C [32]: 18.5% | viability, T/C [33]: 17% | viability, T/C [34]: 7.23% | viability, T/C [35]: 3.13% | viability, T/C [36]: 1.2%

Cc1cccc(N(C)C(=O)C2C(O)CCN2c2nc(C)cc(C(F)(F)F)c2C#N)c1 (stereo not drawn) + CN(C)c1ccc(Nc2c3ccc(NC(=O)CCN4CCCC4)cc3nc3cc(NC(=O)CCN4CCCC4)ccc23)cc1
IC50 (second compound 0.0316 µM): > 10 µM | IC50 (second compound 0.1 µM): > 10 µM | IC50 (second compound 0.316 µM): > 10 µM | IC50 (second compound 1 µM): > 10 µM | IC50 (second compound 3.16 µM): > 10 µM | IC50 (second compound 10 µM): < 0.0316 µM | viability, T/C [1]: 97.7% | viability, T/C [2]: 92.1% | viability, T/C [3]: 99.7% | viability, T/C [4]: 90.6% | viability, T/C [5]: 96.2% | viability, T/C [6]: 123% | viability, T/C [7]: 84.8% | viability, T/C [8]: 92.9% | viability, T/C [9]: 81.6% | viability, T/C [10]: 74.5% | viability, T/C [11]: 99% | viability, T/C [12]: 84.8% | viability, T/C [13]: 86.9% | viability, T/C [14]: 94% | viability, T/C [15]: 76.8% | viability, T/C [16]: 90.3% | viability, T/C [17]: 81.7% | viability, T/C [18]: 73.1% | viability, T/C [19]: 79.3% | viability, T/C [20]: 95.5% | viability, T/C [21]: 111% | viability, T/C [22]: 93% | viability, T/C [23]: 70.7% | viability, T/C [24]: 86% | viability, T/C [25]: 64.3% | viability, T/C [26]: 65.8% | viability, T/C [27]: 43.5% | viability, T/C [28]: 66.4% | viability, T/C [29]: 59.4% | viability, T/C [30]: 44.8% | viability, T/C [31]: 34.9% | viability, T/C [32]: 56.7% | viability, T/C [33]: 47.8% | viability, T/C [34]: 34% | viability, T/C [35]: 37.4% | viability, T/C [36]: 20.9%

Cn1ncnc1[C@H]1c2n[nH]c(=O)c3cc(F)cc(c23)N[C@@H]1c1ccc(F)cc1 + CN(C)c1ccc(Nc2c3ccc(NC(=O)CCN4CCCC4)cc3nc3cc(NC(=O)CCN4CCCC4)ccc23)cc1
IC50 (second compound 0.0316 µM): > 0.316 µM | IC50 (second compound 0.1 µM): > 0.316 µM | IC50 (second compound 0.316 µM): > 0.316 µM | IC50 (second compound 1 µM): > 0.316 µM | IC50 (second compound 3.16 µM): > 0.316 µM | IC50 (second compound 10 µM): < 0.000999 µM | viability, T/C (second compound 0.0316 µM, first compound 0.000999 µM): 86.2% | viability, T/C (second compound 0.0316 µM, first compound 0.00316 µM): 92.3% | viability, T/C (second compound 0.0316 µM, first compound 0.00999 µM): 85.7% | viability, T/C [1]: 78.1% | viability, T/C (second compound 0.0316 µM, first compound 0.0999 µM): 74.2% | viability, T/C [3]: 74.6% | viability, T/C (second compound 0.1 µM, first compound 0.000999 µM): 97.5% | viability, T/C (second compound 0.1 µM, first compound 0.00316 µM): 77.7% | viability, T/C (second compound 0.1 µM, first compound 0.00999 µM): 90.6% | viability, T/C [7]: 92.1% | viability, T/C (second compound 0.1 µM, first compound 0.0999 µM): 88.2% | viability, T/C [9]: 76.7% | viability, T/C (second compound 0.316 µM, first compound 0.000999 µM): 97.5% | viability, T/C (second compound 0.316 µM, first compound 0.00316 µM): 73.2% | viability, T/C (second compound 0.316 µM, first compound 0.00999 µM): 84.1% | viability, T/C [13]: 79.1% | viability, T/C (second compound 0.316 µM, first compound 0.0999 µM): 70.7% | viability, T/C [15]: 62.2% | viability, T/C (second compound 1 µM, first compound 0.000999 µM): 96.7% | viability, T/C (second compound 1 µM, first compound 0.00316 µM): 92.1% | viability, T/C (second compound 1 µM, first compound 0.00999 µM): 84.5% | viability, T/C [19]: 70.7% | viability, T/C (second compound 1 µM, first compound 0.0999 µM): 83.2% | viability, T/C [21]: 68.9% | viability, T/C (second compound 3.16 µM, first compound 0.000999 µM): 70.4% | viability, T/C (second compound 3.16 µM, first compound 0.00316 µM): 77.2% | viability, T/C (second compound 3.16 µM, first compound 0.00999 µM): 56.1% | viability, T/C [25]: 62.4% | viability, T/C (second compound 3.16 µM, first compound 0.0999 µM): 78.9% | viability, T/C [27]: 48.2% | viability, T/C (second compound 10 µM, first compound 0.000999 µM): 31.3% | viability, T/C (second compound 10 µM, first compound 0.00316 µM): 35.4% | viability, T/C (second compound 10 µM, first compound 0.00999 µM): 44.2% | viability, T/C [31]: 26.7% | viability, T/C (second compound 10 µM, first compound 0.0999 µM): 27.4% | viability, T/C [33]: 35.3%

O=C(c1cc(Cc2n[nH]c(=O)c3ccccc23)ccc1F)N1CCN(C(=O)C2CC2)CC1 + CN(C)c1ccc(Nc2c3ccc(NC(=O)CCN4CCCC4)cc3nc3cc(NC(=O)CCN4CCCC4)ccc23)cc1
IC50 (second compound 0.0316 µM): > 10 µM | IC50 (second compound 0.1 µM): > 10 µM | IC50 (second compound 0.316 µM): > 10 µM | IC50 (second compound 1 µM): > 10 µM | IC50 (second compound 3.16 µM): > 10 µM | IC50 (second compound 10 µM): < 0.0316 µM | viability, T/C [1]: 96% | viability, T/C [2]: 133% | viability, T/C [3]: 84.8% | viability, T/C [4]: 80.8% | viability, T/C [5]: 123% | viability, T/C [6]: 89.4% | viability, T/C [7]: 101% | viability, T/C [8]: 83.7% | viability, T/C [9]: 118% | viability, T/C [10]: 102% | viability, T/C [11]: 90% | viability, T/C [12]: 81.9% | viability, T/C [13]: 109% | viability, T/C [14]: 92.5% | viability, T/C [15]: 97.8% | viability, T/C [16]: 84.2% | viability, T/C [17]: 85.2% | viability, T/C [18]: 69.9% | viability, T/C [19]: 85% | viability, T/C [20]: 78% | viability, T/C [21]: 70.1% | viability, T/C [22]: 70% | viability, T/C [23]: 95.8% | viability, T/C [24]: 69.2% | viability, T/C [25]: 80.5% | viability, T/C [26]: 53.2% | viability, T/C [27]: 66.8% | viability, T/C [28]: 60% | viability, T/C [29]: 77.4% | viability, T/C [30]: 57.6% | viability, T/C [31]: 37.3% | viability, T/C [32]: 46.2% | viability, T/C [33]: 31% | viability, T/C [34]: 49.3% | viability, T/C [35]: 36.4% | viability, T/C [36]: 32.9%
